Data reported in US20210393667A1, “TARGET FOR ANTI-CANCER THERAPY” (Phoremost Limited, priority 2018, published 2021).
Where two headings read alike, the source gives them in different places.

Experiments:
[1] = test system: CA18-NanoLuc frameshift reporter in HEK293FT cells; test: Frameshift reporter (FSR) CA(18)-NanoLuc assay, small molecule treatment; format: cell-based; settings: for increase in FSR signal: 72 hours, vs untreated FSR luminescence; for FSR activity (in words): dose range
From the text: In order to read out mismatch repair (MMR) and hypermutability in mammalian cells, a Frameshift reporter (FSR) assay was used. The assay specifically focuses on frameshifts because, of all mismatch mutations, these are the ones that most abundantly generate neoantigens (see, for example, Turajlic et al. Lancet Oncol. 2017 (18; 1009-21). The assay based on the activity of the NanoLuciferase (NanoLuc®, Promega) reporter enzyme was developed (the “CA(n)-NanoLuc assay”). Copies of the CA dinucleotide repeat (referred to as “CA(n)”) were cloned upstream of the NanoLuc coding sequence. Typically 18 copies of the CA dinucleotide repeat (CA(18)) were used. Alternatively, the assay used 20 copies (CA(20)). This CA(n) tract renders the NanoLuc coding sequence out of frame, and therefore there is no reporter enzyme expression and no activity. The CA(n) tract is, however, a sequence which is subject to frequent DNA replication errors, and is therefore reliant on the MMR pathway to repair any post-replicative DNA mismatches. In a MMR-competent cell, any errors are efficiently repaired, the NanoLuc coding sequence remains out of frame and thus reporter activity is low. If, however, MMR is inhibited either by a small molecule or by genetic loss of any of the MMR machinery, post-replicative errors may remain unrepaired, frameshift mutations may occur, and therefore some cells in a population will now express a functional NanoLuc protein.
MMR inhibition can therefore be reported as an increase in NanoLuc® activity when a plasmid containing a CA repeat, such as the CA(18) NanoLuc construct, is transfected into cells. Since NanoLuc® is a highly processive enzyme with a large and linear dynamic range, it was predicted that only a small number of MMR errors would be required to generate a positive signal, making for a sensitive assay with a large signal to noise ratio.
In addition, it has been shown that inhibition of RNR causes altered pools of dNTP resulting in increased mutation rates. Relatively modest dNTP pool deviations induce exceptionally strong mutator phenotypes which cause saturation of the DNA mismatch repair system and lead to detection in the FSR assay system.
HEK293FT cells seeded at 600,000 cells per well in a 6 well plate and incubated overnight. Media was replaced and incubated a further 2 hours before transient transfection of pcDNA3.1 Hygro CA18Nluc (0.5 μg). After 4 hours media was replaced and incubated overnight. Media was aspirated, cells washed with PBS and trypsinised. Cells were pelleted by centrifugation (1000×g, 5 mins), washed in PBS, centrifuged again and resuspended in fresh media to […].
(§1) A 96 well plate was seeded with 100 μl of transfected cells and incubated overnight. A 2× solution of clofarabine was made to 100 μM in DMEM and 9× two-fold dilutions were made in growth media. A parallel dilution series was made with equal concentrations of DMSO as a control. 100 μL of clofarabine or DMSO solution was added to wells of 96 well plates (6 replicates per concentration). PBS was added to outer wells of 96 well plates and incubated for 48 hours. To 3 wells per concentration a 1:1 ratio of CellTiter Glo (Promega) was added. To remaining wells, an equal volume of NanoGlo (Promega) reagent was added. 100 μL was aliquoted from each well to a 96 well, white walled, white bottomed plate and luminescence read. Percentage viability was calculated for all conditions in comparison to an untreated control and nanoluciferase reading were normalised to viability.
For triapine treatment, cells were initially seeded into 6 well plates and transfected with the pcDNA3.1 Hygro CA18Nluc construct, as in the detailed method for clofarabine treatment. After transfection, cells were trypsinised and seeded into white-walled 384 well plates at a density of 2000 cells per well in a final volume of 30 uL. After 24 hours, cells were treated with compounds or a DMSO solvent control in a final volume of 3.3 uL. […]

[2] = CellTitre Glo viability assay; format: cell-based; settings: human
Protocol: as §1
(§2) For triapine treatment, cells were initially seeded into 6 well plates and transfected with the pcDNA3.1 Hygro CA18Nluc construct, as in the detailed method for clofarabine treatment. After transfection, cells were trypsinised and seeded into white-walled 384 well plates at a density of 2000 cells per well in a final volume of 30 uL. After 24 hours, cells were treated with compounds or a DMSO solvent control in a final volume of 3.3 uL. Compound stock was diluted to achieve a final concentration of 10 uM, and compounds were serially diluted in DMSO by three-fold to generate the dose-response curve. Compound was subsequently diluted in media, and then added to cells in 3.3 uL, ensuring a final concentration of DMSO no greater than 0.5%. PBS was added to outer wells of the 384 well plates and incubated for 72 hours. To 3 wells per concentration, 5 uL of CellTiter Glo (Promega) was added. To remaining wells, 30 uL of NanoGlo (Promega) reagent was added and incubated at room temperature for 30 minutes. Luminescence was read. Percentage viability was calculated for all conditions in comparison to an untreated control and nanoluciferase reading were normalised to viability.

[3] = test system: HEK293FT cells; test: GI50, standard dosimetric assay testing for cell growth; format: cell-based
[4] = test system: HEK293FT cells; test: CellTitre Glo viability assay; format: cell-based; settings: HEK293FT cells, 3.33 uM, 72 hours
Protocol: as §1, §2

[5] = test system: CT26 cells; test: Whole exome sequencing of CT26 cells after 100 days of clofarabine; format: cell-based, mouse; settings: 100 nM, relative to matched vehicle only control
Protocol: CT26 cells, cultured in RPM11640 were dosed with 100 nM clofarabine or with DMSO only. Cells were passaged and re-dosed every 72 hours. Cells were harvested at 100 days, and single-cell colonies (SSCs) derived for each sample. After expansion over 8-10 days, genomic DNA was extracted from SSC pellets and whole exome sequencing (WES) performed following methods such as those described, for example, in WO2017/182783, see page 33, line 21 onwards and page 34, lines 1 to 5.
Somatic single nucleotide variants (SNVs), multiple-nucleotide polymorphisms (MNPs), and insertion-deletion (InDel) mutations were identified using the GATK4 Toolkit and GATK's Mutect2 (version 4.1.4.0) to analyse the WES data. Prior to mapping the read sequences to the reference genome (mm10), read data quality and adapter trimming and QC was performed using TrimGalore and a Q-score cut-off of 30. Reads were aligned to mm10 using BWA mem (version 0.7.17-r1188). Duplicate reads were marked using MarkDuplicates (Picard, GATK4 copy). Variant discovery using Mutect2 was performed using a custom generated interval list and Panel of Normals (PON) resource. The interval list was derived for a BED file of canonical transcript exon positional information for mm10, which was generated using the UCSC TableBrowser. The PON was derived for matched CT26 WES data using Mutect2, GenomicsDBImport, and CreateSomaticPanelOfNormals. Variant filtering was performed using FilterMutectCalls (GATK4). Variants detailed in the VCF files generated using FilterMutectCalls were further filtered using a shell script in order to keep only variants meeting the quality control thresholds applied by FilterMutectCalls and exclude variants identified for reads mapping to unlocalized and unplaced contigs. The functional effects of the identified variants (on genes, transcripts, protein sequences, and regulatory regions) were predicted using the Ensembl Variant Effect Predictor (VEP).

[6] = test system: CT26 cells; test: T cell killing assay with clofarabine-treated CT26 cells; format: cell-based, mouse; settings: CT26 cells treated with 100 nM for 100 days; stimulated and unstimulated, C57BL/6- and Balb/c-derived CD8 T cells, 10:1, 72 h
Protocol: T-cell extraction: Spleen from C56BL/6 and Balb/c mice was homogenised aseptically using a cell strainer and syringe plunger. RBC was lysed using lysis buffer and remaining cells washed and counted. Dynabeads untouched mouse CD8 cell kit (Thermofisher: 11417D) used to isolate CD8 cells using negative selection. Half these cells were cultured as unstimulated for assay controls but the majority was cultured with Dynabeads Mouse T-activator CD3/CD28 beads for 24 h prior to assay. T-cell assay: CT26 tumour cell lines (parental as control) was plated at 3,000 cells per well into a 96 well plate; effector cells at a ratio of 10:1 was added along with appropriate stains and imaged on the EVOS microscope over a period of 72 h.

[7] = recommended dose for adult acute leukemia, 40 mg/m2/day×5 days; cited from earlier work

With `Nc1ccn([C@@H]2O[C@H](CO)[C@@H](O)C2(F)F)c(=O)n1` [gemcitabine] the “increase in FSR signal” value ([1]; 370 nM) was 300%, the “FSR activity (in words)” value [1] was “causes an increase in FSR activity” and the cytotoxicity at 72 h, 370 nM [2] was 50%. For the same molecule, the GI50 [3] was 0.44 µM.
With `Nc1nc(Cl)nc2c1ncn2[C@H]1C[C@H](O)[C@@H](CO)O1` [cladribine, Cladribine] the “increase in FSR signal” value ([1]; 3.33 uM) was 226% and the reduction in viability [4] was “no reduction in viability”.
For `Nc1nc(Cl)nc2c1ncn2[C@@H]1O[C@H](CO)[C@@H](O)[C@@H]1F` [clofarabine, (2R,3R,4S,5R)-5-(6-amino-2-chloropurin-9-yl)-4-fluoro-2-(hydroxymethyl)oxolan-3-ol], the “increase in FSR signal” value ([1]; 50 nM) was 40%, the “FSR activity (in words)” value [1] was “dose-dependent increase in FSR activity” and the viability at 72 h, 0.05 µM [2] was 92%. The GI50 [3] was 0.43 µM, the “overall burden of mutations (largely SNV)” value [5] was “does not increase substantially” and the “proportion of frame-shift causing InDel mutations” value [5] was “elevated”. The “total count of frame-shift causing InDel mutations” value [5] was “elevated”, the T cell killing [6] was “significantly increase T cell killing” and the plasma levels [7] was “around 1 μM”.
With `NC(=S)N/N=C/c1ncccc1N` [triapine] the “increase in FSR signal” value ([1]; 370 nM) was 400%, the cytotoxicity at 72 h, 370 nM ([2]; HEK293FT cells, 370 nM, 72 hours, vs DMSO control, read-out: reduction in viability) was 23% and the GI50 [3] was 0.6 µM.
